Here are results for twelve compounds from patent publication US12440581B2, “Fluorophores for super-resolution imaging” (HOWARD HUGHES MEDICAL INSTITUTE, priority 2019, dated 2025).

Series [1] can be described thus: Quantum yield determination. The format is physicochemical. Particulars: for ϕ (fluorescence quantum yield): absolute, integrating sphere. As for the experimental part: (§1) Quantum yield determination. All reported absolute fluorescence quantum yield values (Φ) were measured in the laboratory under identical conditions using a Quantaurus-QY spectrometer (model C11374, Hamamatsu). This instrument uses an integrating sphere to determine photons absorbed and emitted by a sample. Measurements were carried out using dilute samples (A<0.1) and self-absorption corrections were performed using the instrument software^57 when appropriate. Reported values are averages (n=3).

The nature of series [2]: Determination KL-Z and εmax. Format: physicochemical. Particulars: for εmax: 0.1% TFA in TFE (rhodamine 10), 0.1% TFA in ethanol (Si-rhodamine 8); for KL-Z (lactone-zwitterion equilibrium constant): 1:1 (v/v) dioxane:water, 0.01% triethylamine. The method, then: Determination KL-Z and εmax. The lactone-zwitterion equilibrium constant (KL-Z) was calculated as described previously^18,41 using equation 1: KL-Z=(εdw/εmax)/(1−εdw/εmax) (1) • where εdw is the extinction coefficient of the dyes in a 1:1 (v/v) dioxane:water solvent mixture containing 0.01% (v/v) triethylamine; the dioxane-water mixture was chosen to give a large range of KL-Z values and the triethylamine additive ensures the rhodamines are in the net neutral form. The emax (maximal extinction coefficient) values were measured in 0.1% (v/v) trifluoroacetic acid (TFA) in 2,2,2-trifluoroethanol (TFE) for rhodaminc 10, and 0.1% (v/v) TFA in ethanol for the Si-rhodamine 8.
Instead, a solution of strong acid in alcoholic solvents was used (e.g., TFA in […]) to shift the equilibrium to the open form by protonation of the o-carboxyl group. This decades-old procedure^36 allows estimation of the maximal extinction coefficient (εmax) and determination of KL-Z=(ε/εmax)/(1−ε/εmax).
The KL-Z was determined using ε values measured in 1:1 dioxane:water to ensure a broad distribution of values.^18 An inverse relationship was observed between KL-Z and fluorogenicity, showing that KL-Z is sufficient to accurately predict the increase in fluorescence of rhodamine dyes. This increase in fluorescence is primarily driven by the increase in absorption; chromogenicity is correlated both with KL-Z and fluorogenicity (FIGS. 11E-11J). Importantly, this trend holds across different rhodamine scaffolds including Si-rhodamines (1-3), carborhodamines (4-5), and classic, oxygen-containing rhodamines (6-7, FIG. 1C). Based on this inverse relationship a simple rubric was determined: a dye with KL-Z<10^−2 should yield a HaloTag ligand with at least 10-fold fluorogenicity (FIG. 1E).

A short description of series [3]: UV-vis and fluorescence spectroscopy. The format is physicochemical. The conditions noted are these: for εw / λabs / λem: 10 mM HEPES, pH 7.3; for hypsochromic shift: relative to parent dye (SiR for SiR110; JF549 for JF525). The method, then:
UV-vis and fluorescence spectroscopy. […] Spectroscopy was performed using 1-cm path length, 3.5-mL quartz cuvettes or 1-cm path length, 1.0-ml quartz microcuvettes (Starna Cells). All measurements were taken at ambient temperature (22±2° C.). Absorption spectra were recorded on a Cary Model 100 spectrometer (Agilent). Fluorescence spectra were recorded on a Cary Eclipse fluorometer (Varian). Maximum absorption wavelength (λabs), extinction coefficient (εw), and maximum emission wavelength (λem) were taken in 10 mM HEPES, pH 7.3 buffer unless otherwise noted; reported values for ew are averages (n=3). Normalized spectra are shown for clarity.

The next series concerns polyG·polyC DNA (DNAGC). The series is described as follows: Quantum yield of 10HST following binding DNA (polyG·polyC). Particulars: PBS pH 7.4, with polyG·polyC DNA duplex. The method, then:
as §1
(§2) Measurement of increase in absorbance and fluorescence of 10HST following binding DNA. 10HST (5 μM) was added to phosphate buffered saline (PBS; pH 7.4) containing no DNA (blank), a DNA duplex with sequences 5′-A20-3′ and 5′-T20-3′ (polyA·polyT; i.e., DNAAT; 50 μM; Integrated DNA Technologies), or a DNA duplex with sequences 5′-G20-3′ and 5′-C20-3′ (polyG·polyC; i.e., DNAGC; 50 μM; Integrated DNA Technologies). These solutions were incubated for 2 h at ambient temperature, followed by measurement of absorption spectra. The solutions were then diluted to 500 nM in PBS for measurement of fluorescence spectra or diluted to 1.25 μM in PBS for measurement of quantum yield. Found: 10HST Φ=0.009; 10HST·DNAAT Φ=0.126; 10HST·DNAGC Φ=0.040.

For another series, the system named is polyA·polyT DNA (DNAAT). Nature of the series: Quantum yield of 10HST following binding DNA (polyA·polyT). The conditions noted are these: PBS pH 7.4, with polyA·polyT DNA duplex. The method, then:
as §1, §2

For series [4] the following is noted: Introduction, known dyes; cited from earlier work.
The nature of series [5]: Absorption of dyes 1 and 2 in the presence of laboratory detergents. The format is physicochemical. The conditions noted are these: 20 mM sodium phosphate buffer, pH 7.0, 5 mg/mL detergent. As for the experimental part: FIGS. 11A-11J. FIG. 11A-Absorption at λabs for dyes 1 and 2 in 20 mM sodium phosphate buffer, pH 7.0 containing 5 mg/mL detergent, error bars show±s.e.m. FIGS. 11B and 11C-Absorption spectra for dyes 1 (FIG. 11B) and 2 (FIG. 11C) near λabs in the presence (dashed line) or absence (solid line) of SDS. FIG. 11D—Chemical structures and properties of HaloTag ligands 1HTL-10HTL; ΔA/A0 indicates the change in absorption (ΔA) and ΔF/F0 indicates the change in fluorescence (ΔF) of the HaloTag ligands upon binding purified HaloTag protein divided by the basal absorption or fluorescence of the free ligand (F0 or A0). FIG. 11E—ΔA/A0 of the HaloTag ligands 1HTL-10HTL vs. KL-Z of the corresponding free dyes 1-10; the solid line indicates a linear fit (R^2=0.93). (f) ΔF/F0 vs. ΔA/A0 for the HaloTag ligands 1HTL-10HTL; the solid line indicates a linear fit (R^2=0.87). FIG. 11G—Normalized absorption (abs, solid line), normalized fluorescence excitation (ex, dashed line), and FIG. 11H—normalized fluorescence emission (em) spectra for dye 8 in 10 mM HEPES, pH 7.3.
The mechanism of SiR/JF646 fluorogenicity. […] The interaction between the Si-rhodamine dyes 1 and 2 and SDS was further characterized by measuring the absorption of 1 or 2 vs. [SDS] and observing the absorbance increase only above the critical micelle concentration (c.m.c.) of SDS (FIG. 1C). […]

The conditions of series [6]: Introduction, known dyes; cited from earlier work. This is another data set of the same source.
In series [7] the test system is histone H2A.Z-HaloTag fusion. The series is described as follows: Comparison of HaloTag ligands 6HTL and 9HTL in live yeast. The conditions noted are these: 10 nM, 2 h, washed, wide-field fluorescence. Format: cell-based, S. cerevisiae. As for the experimental part: Comparison of HaloTag ligands 6HTL and 9HTL. in live yeast. A S. cerevisiae strain expressing a histone H2A.Z-HaloTag fusion under natural promoter control was created; the PDR5 transporter gene was also deleted for improved cellular retention of fluorescent ligands. Cells were grown to early log phase and incubated with either JF552-HaloTag ligand (9HTL; 10 nM) or JF549-HaloTag ligand (6HTL; 10 nM) for 2 h. Free ligand was removed by three washes in culture media and the live cells were imaged by wide-field fluorescence microscopy at ambient temperature.

The conditions of series [8]: Introduction, known dyes, cited from earlier work; for ε (extinction coefficient): free dye in aqueous solution.

Where two headings read alike, the source gives them in different places.

For `O=C1OC2(c3ccc(N4CC(F)(F)C4)cc3Oc3cc(N4CC(F)(F)C4)ccc32)c2ccccc21` [dye 7, JF525], the “ϕ (fluorescence quantum yield)” value in [1] came to 0.91. In [2], the εmax is listed as 122,000 M^−1cm^−1 and the “KL-Z (lactone-zwitterion equilibrium constant)” value came to 0.068. Further, in series [3], the εw is on record as 94,000 M^−1cm^−1, the λabs came to 525 nm, the λem turned out to be 549 nm and the hypsochromic shift is given as approximately 25 nm.

Consider `CC1(C)c2cc(N3CC(F)(F)C3)ccc2C2(OC(=O)c3ccccc32)c2ccc(N3CC(F)(F)C3)cc21` [dye 5, JF585], for which the “ϕ (fluorescence quantum yield)” value in [1] came out at 0.78. In addition, in series [2], the εmax is 156,000 M^−1cm^−1 and the “KL-Z (lactone-zwitterion equilibrium constant)” value was less than 0.0001. For the same compound, in series [3], the εw is 1,500 M^−1cm^−1, the λabs turned out to be 585 nm and the λem is 609 nm.

Turning to JF526-Hoechst [10HST], the Φ in series [1] (PBS pH 7.4, no DNA (blank), 1.25 μM) came to 0.009; in the series on polyG·polyC DNA (DNAGC), 0.040; in the series on polyA·polyT DNA (DNAAT) it was 0.126.

Regarding `CN(C)c1ccc2c(c1)[Si](C)(C)c1cc(N(C)C)ccc1C21OC(=O)c2ccccc21` [dye 1, tetramethyl-Si-rhodamine], the “ϕ (fluorescence quantum yield)” value in [1] is given as 0.41. Also, the KL-Z in series [4] is recorded as 0.0034. Besides, in series [2], the εmax was 141,000 M^−1cm^−1 and the “KL-Z (lactone-zwitterion equilibrium constant)” value is reported as 0.0034. Also, the “change of absorption with detergents” value in series [5] is “absorbance increases only in the presence of SDS”. Moreover, the “Φ (fluorescence quantum yield)” value in series [6] was 0.41.

With `O=C(NCCOCCOCCCCCCCl)c1ccc2c(c1)C1(OC2=O)c2ccc(N3CCC3)cc2Oc2cc(N3CCC3)ccc21` [6HTL], in series [7], the “labeling of yeast nuclei (fluorescence signal)” value was “relatively poor labeling”.

In the case of `C[Si]1(C)c2cc(N3CC(F)C3)ccc2C2(OC(=O)c3ccccc32)c2ccc(N3CC(F)C3)cc21` [dye 3, JF635], the “ϕ (fluorescence quantum yield)” value in series [1] was 0.56. The KL-Z in series [4] was less than 0.0001. Moreover, in [2], the εmax was 167,000 M^−1cm^−1 and the “KL-Z (lactone-zwitterion equilibrium constant)” value is less than 0.0001. In [8], the λabs is on record as 635 nm, the λem is given as 652 nm and the “ε (extinction coefficient)” value is 400 M⁻¹ cm⁻¹. The “Φ (fluorescence quantum yield)” value in [6] was 0.54. Moreover, in series [3], the εw is approximately 400 M⁻¹ cm⁻¹, the λabs is recorded as 635 nm and the λem was 652 nm.

Consider Si-Rhodamine 110 [dye 8], for which the “ϕ (fluorescence quantum yield)” value in series [1] is 0.53. In [2], the εmax was 94,000 M^−1cm^−1 and the “KL-Z (lactone-zwitterion equilibrium constant)” value is 0.0043. In series [3], the εw is given as 2,200 M^−1cm^−1, the λabs is on record as 587 nm, the λem is given as 609 nm and the hypsochromic shift is on record as approximately 50 nm.

For `CC1(C)c2cc(N3CCC3)ccc2C2(OC(=O)c3ccccc32)c2ccc(N3CCC3)cc21` [dye 4, JF608], the “ϕ (fluorescence quantum yield)” value in series [1] was 0.67. For the same compound, in series [2], the εmax is 121,000 M^−1cm^−1 and the “KL-Z (lactone-zwitterion equilibrium constant)” value amounted to 0.091. For the same compound, in series [3], the εw was 99,000 M^−1cm^−1, the λabs is given as 608 nm and the λem was 631 nm.

For the compound `O=C(NCCOCCOCCCCCCCl)c1ccc(C(=O)[O-])c(-c2c3cc(F)c(=[N+]4CCC4)cc-3oc3cc(N4CCC4)c(F)cc23)c1` [9HTL, JF552-HaloTag ligand], in series [7], the “labeling of yeast nuclei (fluorescence signal)” value is listed as “high fluorescence signal”.

On to `O=C1OC2(c3ccc(N4CCC4)cc3Oc3cc(N4CCC4)ccc32)c2ccccc21` [dye 6, JF549], for which the “ϕ (fluorescence quantum yield)” value in series [1] was determined as 0.88. In addition, in series [2], the εmax is recorded as 134,000 M^−1cm^−1 and the “KL-Z (lactone-zwitterion equilibrium constant)” value came out at 3.5. Also, in [3], the εw is 101,000 M^−1cm^−1, the λabs worked out at 549 nm and the λem was found to be 571 nm.

Take `C[Si]1(C)c2cc(N3CCC3)ccc2C2(OC(=O)c3ccccc32)c2ccc(N3CCC3)cc21` [dye 2, JF646]: the “ϕ (fluorescence quantum yield)” value in [1] was 0.54. Also, the KL-Z in series [4] is 0.0012. Besides, in series [2], the εmax is listed as 152,000 M^−1cm^−1 and the “KL-Z (lactone-zwitterion equilibrium constant)” value is 0.0012. Besides, the “change of absorption with detergents” value in [5] is reported as “absorbance increases only in the presence of SDS”. Further, in series [8], the λabs was 646 nm, the λem was 664 nm and the “ε (extinction coefficient)” value was 5,000 M^−1 cm^−1. In addition, the “Φ (fluorescence quantum yield)” value in series [6] was 0.54. For the same compound, in [3], the εw is given as 5,000 M^−1cm^−1, the λabs amounted to 646 nm and the λem amounted to 664 nm.

In the case of `O=C([O-])c1ccccc1-c1c2cc(F)c(=[N+]3CCC3)cc-2oc2cc(N3CCC3)c(F)cc12` [dye 9, Janelia Fluor 552], the “ϕ (fluorescence quantum yield)” value in series [1] was 0.83. For the same compound, in series [2], the εmax is listed as 129,000 M^−1cm^−1 and the “KL-Z (lactone-zwitterion equilibrium constant)” value came out at 0.70. In addition, the “reduction of KL-Z” value in series [2] (relative to JF549) was 5 fold. In addition, in [3], the εw is given as 95,000 M^−1cm^−1, the λabs was determined as 552 nm and the λem worked out at 575 nm.
